The values that follow come from US8945061B2, “Otic formulations, methods and devices” (Entrx LLC, priority 2012, dated 2015).

≈ marks a conversion by molar mass, not a printed value.

The subject of experiment [1] is fungus and bacteria. The following applies: published literature; cited from earlier work.
Experiment [2] relates to 22 Candida spp. and 10 Aspergillus spp. The settings on record: all yeasts and moulds tested; judged from high MICs.
Experiment [3] relates to C. parapsilosis. The following applies: n=1 strain, 48 hours, prominent growth reduction endpoint.
For experiment [4], the system named is A. fumigatus. The following applies: n=5 strains, 48 hours, prominent growth reduction endpoint.
In experiment [5] the test system is C. glabrata. The following applies: n=5 strains, 48 hours, prominent growth reduction endpoint.
For experiment [6], the system named is C. lusitaniae. The settings on record: n=1 strain, 48 hours, prominent growth reduction endpoint.
Experiment [7] has as its system C. tropicalis. The following applies: n=5 strains, 48 hours, prominent growth reduction endpoint.
Experiment [8] deals with C. krusei. The following applies: n=5 strains, 48 hours, prominent growth reduction endpoint.
Experiment [9] has as its system Staphlococcus aureus. The settings on record: cited from earlier work.
Experiment [10] deals with A. niger. The settings on record: n=5 strains, 48 hours, prominent growth reduction endpoint.
Experiment [11] deals with Pseudomonas. The following applies: cited from earlier work.
Experiment [12] deals with C. albicans. The settings on record: n=5 strains, 48 hours, prominent growth reduction endpoint.

Take `Cc1cccc(N(C)C(=S)Oc2ccc3ccccc3c2)c1` [tolnaftate]: the “Spectrum of Efficacy” value in [1] is “Fungistatic for dermatophytes and Tinea Versicoior”.
For `O=C(O)c1cn(C2CC2)c2cc(N3CCNCC3)c(F)cc2c1=O` [CIPRO, ciprofloxacin], the “antifungal activity on its own” value in [2] was “no antifungal activity on its own”.
In the case of `C[C@@H]1[C@H](O)[C@@H](C)/C=C/C=C/CC/C=C/C=C/C=C/C=C/C(O[C@H]2O[C@H](C)[C@@H](O)[C@H](N)[C@@H]2O)CC2O[C@](O)(CC(O)C(O)CCC(O)CC(O)CC(O)CC(=O)O[C@H]1C)CC(O)C2C(=O)O` (some centres unmarked) [Nystatin, nystatin], the “Spectrum of Efficacy” value in experiment [1] is listed as “primarily fungistatic at low concentrations against biphasic”.
As for `Clc1ccccc1C(c1ccccc1)(c1ccccc1)n1ccnc1` [CTZ, clotrimazole], the MIC range is 0.06 µg/mL (≈ 0.174 µM) in experiment [3]; 0.25 to 0.5 µg/mL in experiment [4]; 0.25 to 1 µg/mL in experiment [5]; “≦0.015 mcg/ml” in experiment [6]; 0.06 to 2 µg/mL in [7]; 0.06 to 0.125 µg/mL in [8]. The MIC range in [10] was 0.5 to 1 µg/mL; in [12], “≦0.015 mcg/ml”. Also, the “Spectrum of Efficacy” value in experiment [1] was “Aspergillus fiavus, Aspergilius fumigatus, Blastomyces”. For the same compound, the antibacterial activity result in experiment [9] and in experiment [11] was “demonstrated antibacterial activity” each time.
